Laboratory results taken from PubChem BioAssay (NCI).
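A five-concentration, 48-hour dose response in 96-well plates underlies each endpoint, interpolated linearly between surrounding concentrations. At the TGI there is no net growth.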

system: 786-0 renal; experiment: DTP human tumour cell line panel, 48 h

`C#CC1(O)C(COP(=O)(O)OC(COCCCCCCCCCCCCCCCCCC)COP(=O)(O)OCC2OC(n3cc(C)c(=O)[nH]c3=O)CC2N=[N+]=[N-])OC(n2ccc(N)nc2=O)C1O` (configuration not stated) and `CCOc1ccccc1/C=C(/C#N)C(N)=O` cannot be ordered by TGI: > 100 µM for the first, > 100 µM for the second.

`COc1cccc(-c2nnc3c(-c4ccccc4)nc4ccccc4n23)c1` and `c1ccc(COC2NCCN2Cc2ccccc2)cc1` (configuration not stated) cannot be ordered by TGI: > 100 µM for the first, > 100 µM for the second.

For `NC(=O)C1CCCNC1` (configuration not stated), the TGI was > 100 µM.

system: A498 renal; experiment: DTP human tumour cell line panel, 48 h

First: C#CC1(O)C(COP(=O)(O)OC(COCCCCCCCCCCCCCCCCCC)COP(=O)(O)OCC2OC(n3cc(C)c(=O)[nH]c3=O)CC2N=[N+]=[N-])OC(n2ccc(N)nc2=O)C1O (configuration not stated)
Second: CCOc1ccccc1/C=C(/C#N)C(N)=O
The TGI of the first is lower: 17.1 µM for the first, > 100 µM for the second.

Compared with `COc1cccc(-c2nnc3c(-c4ccccc4)nc4ccccc4n23)c1`, `c1ccc(COC2NCCN2Cc2ccccc2)cc1` (configuration not stated) is higher in TGI: 93.4 µM for the first, > 100 µM for the second.

`NC(=O)C1CCCNC1` (configuration not stated) was tested, and the TGI was > 100 µM.

system: A549 NSCLC; experiment: DTP human tumour cell line panel, 48 h

Going from `C#CC1(O)C(COP(=O)(O)OC(COCCCCCCCCCCCCCCCCCC)COP(=O)(O)OCC2OC(n3cc(C)c(=O)[nH]c3=O)CC2N=[N+]=[N-])OC(n2ccc(N)nc2=O)C1O` (configuration not stated) to `CCOc1ccccc1/C=C(/C#N)C(N)=O`, the TGI rises from 20.2 µM to > 100 µM.

`COc1cccc(-c2nnc3c(-c4ccccc4)nc4ccccc4n23)c1` and `c1ccc(COC2NCCN2Cc2ccccc2)cc1` (configuration not stated) cannot be ordered by TGI: > 100 µM for the first, > 100 µM for the second.

For `NC(=O)C1CCCNC1` (configuration not stated), the TGI was > 100 µM.

system: ACHN renal; experiment: DTP human tumour cell line panel, 48 h

`C#CC1(O)C(COP(=O)(O)OC(COCCCCCCCCCCCCCCCCCC)COP(=O)(O)OCC2OC(n3cc(C)c(=O)[nH]c3=O)CC2N=[N+]=[N-])OC(n2ccc(N)nc2=O)C1O` (configuration not stated) and `CCOc1ccccc1/C=C(/C#N)C(N)=O` cannot be ordered by TGI: > 72.5 µM for the first, > 100 µM for the second.

`COc1cccc(-c2nnc3c(-c4ccccc4)nc4ccccc4n23)c1` and `c1ccc(COC2NCCN2Cc2ccccc2)cc1` (configuration not stated) cannot be ordered by TGI: > 100 µM for the first, > 100 µM for the second.

With `NC(=O)C1CCCNC1` (configuration not stated) the TGI was > 100 µM.

system: BT-549 breast; experiment: DTP human tumour cell line panel, 48 h

First: C#CC1(O)C(COP(=O)(O)OC(COCCCCCCCCCCCCCCCCCC)COP(=O)(O)OCC2OC(n3cc(C)c(=O)[nH]c3=O)CC2N=[N+]=[N-])OC(n2ccc(N)nc2=O)C1O (configuration not stated)
Second: CCOc1ccccc1/C=C(/C#N)C(N)=O
The TGI of the first is lower: 31 µM for the first, > 100 µM for the second.

`COc1cccc(-c2nnc3c(-c4ccccc4)nc4ccccc4n23)c1` and `c1ccc(COC2NCCN2Cc2ccccc2)cc1` (configuration not stated) cannot be ordered by TGI: > 100 µM for the first, > 100 µM for the second.

With `NC(=O)C1CCCNC1` (configuration not stated) the TGI was > 100 µM.

system: CAKI-1 renal; experiment: DTP human tumour cell line panel, 48 h

`C#CC1(O)C(COP(=O)(O)OC(COCCCCCCCCCCCCCCCCCC)COP(=O)(O)OCC2OC(n3cc(C)c(=O)[nH]c3=O)CC2N=[N+]=[N-])OC(n2ccc(N)nc2=O)C1O` (configuration not stated) and `CCOc1ccccc1/C=C(/C#N)C(N)=O` cannot be ordered by TGI: > 29 µM for the first, > 100 µM for the second.

`COc1cccc(-c2nnc3c(-c4ccccc4)nc4ccccc4n23)c1` and `c1ccc(COC2NCCN2Cc2ccccc2)cc1` (configuration not stated) cannot be ordered by TGI: > 86.6 µM for the first, > 100 µM for the second.

With `NC(=O)C1CCCNC1` (configuration not stated) the TGI was > 100 µM.

system: CCRF-CEM leukemia; experiment: DTP human tumour cell line panel, 48 h

Compared with `C#CC1(O)C(COP(=O)(O)OC(COCCCCCCCCCCCCCCCCCC)COP(=O)(O)OCC2OC(n3cc(C)c(=O)[nH]c3=O)CC2N=[N+]=[N-])OC(n2ccc(N)nc2=O)C1O` (configuration not stated), `CCOc1ccccc1/C=C(/C#N)C(N)=O` is 3.9-fold higher in TGI: 18.9 µM for the first, 73.7 µM for the second.

Going from `COc1cccc(-c2nnc3c(-c4ccccc4)nc4ccccc4n23)c1` to `c1ccc(COC2NCCN2Cc2ccccc2)cc1` (configuration not stated), the TGI rises from 39.1 µM to > 100 µM.

With `NC(=O)C1CCCNC1` (configuration not stated) the TGI was > 100 µM.

system: COLO 205 colon; experiment: DTP human tumour cell line panel, 48 h

Compared with `C#CC1(O)C(COP(=O)(O)OC(COCCCCCCCCCCCCCCCCCC)COP(=O)(O)OCC2OC(n3cc(C)c(=O)[nH]c3=O)CC2N=[N+]=[N-])OC(n2ccc(N)nc2=O)C1O` (configuration not stated), `CCOc1ccccc1/C=C(/C#N)C(N)=O` is higher in TGI: 5.23 µM for the first, > 100 µM for the second.

`COc1cccc(-c2nnc3c(-c4ccccc4)nc4ccccc4n23)c1` and `c1ccc(COC2NCCN2Cc2ccccc2)cc1` (configuration not stated) cannot be ordered by TGI: > 100 µM for the first, > 100 µM for the second.

For `NC(=O)C1CCCNC1` (configuration not stated), the TGI was > 100 µM.

system: DU-145 prostate; experiment: DTP human tumour cell line panel, 48 h

`C#CC1(O)C(COP(=O)(O)OC(COCCCCCCCCCCCCCCCCCC)COP(=O)(O)OCC2OC(n3cc(C)c(=O)[nH]c3=O)CC2N=[N+]=[N-])OC(n2ccc(N)nc2=O)C1O` (configuration not stated) and `CCOc1ccccc1/C=C(/C#N)C(N)=O` cannot be ordered by TGI: > 100 µM for the first, > 100 µM for the second.

`COc1cccc(-c2nnc3c(-c4ccccc4)nc4ccccc4n23)c1` and `c1ccc(COC2NCCN2Cc2ccccc2)cc1` (configuration not stated) cannot be ordered by TGI: > 100 µM for the first, > 100 µM for the second.

In the case of `NC(=O)C1CCCNC1` (configuration not stated), the TGI is reported as > 100 µM.

system: EKVX NSCLC; experiment: DTP human tumour cell line panel, 48 h

`C#CC1(O)C(COP(=O)(O)OC(COCCCCCCCCCCCCCCCCCC)COP(=O)(O)OCC2OC(n3cc(C)c(=O)[nH]c3=O)CC2N=[N+]=[N-])OC(n2ccc(N)nc2=O)C1O` (configuration not stated) and `CCOc1ccccc1/C=C(/C#N)C(N)=O` cannot be ordered by TGI: > 67.2 µM for the first, > 100 µM for the second.

`COc1cccc(-c2nnc3c(-c4ccccc4)nc4ccccc4n23)c1` and `c1ccc(COC2NCCN2Cc2ccccc2)cc1` (configuration not stated) cannot be ordered by TGI: > 100 µM for the first, > 100 µM for the second.

`NC(=O)C1CCCNC1` (configuration not stated) was tested, and the TGI was > 100 µM.

system: HCC-2998 colon; experiment: DTP human tumour cell line panel, 48 h

`COc1cccc(-c2nnc3c(-c4ccccc4)nc4ccccc4n23)c1` was tested, and the TGI was 62.7 µM.

system: HCT-116 colon; experiment: DTP human tumour cell line panel, 48 h

`C#CC1(O)C(COP(=O)(O)OC(COCCCCCCCCCCCCCCCCCC)COP(=O)(O)OCC2OC(n3cc(C)c(=O)[nH]c3=O)CC2N=[N+]=[N-])OC(n2ccc(N)nc2=O)C1O` (configuration not stated) and `CCOc1ccccc1/C=C(/C#N)C(N)=O` cannot be ordered by TGI: > 100 µM for the first, > 100 µM for the second.

`COc1cccc(-c2nnc3c(-c4ccccc4)nc4ccccc4n23)c1` and `c1ccc(COC2NCCN2Cc2ccccc2)cc1` (configuration not stated) cannot be ordered by TGI: > 100 µM for the first, > 100 µM for the second.

With `NC(=O)C1CCCNC1` (configuration not stated) the TGI was > 100 µM.

system: HCT-15 colon; experiment: DTP human tumour cell line panel, 48 h

`C#CC1(O)C(COP(=O)(O)OC(COCCCCCCCCCCCCCCCCCC)COP(=O)(O)OCC2OC(n3cc(C)c(=O)[nH]c3=O)CC2N=[N+]=[N-])OC(n2ccc(N)nc2=O)C1O` (configuration not stated) and `CCOc1ccccc1/C=C(/C#N)C(N)=O` cannot be ordered by TGI: > 47.8 µM for the first, > 100 µM for the second.

`COc1cccc(-c2nnc3c(-c4ccccc4)nc4ccccc4n23)c1` and `c1ccc(COC2NCCN2Cc2ccccc2)cc1` (configuration not stated) cannot be ordered by TGI: > 100 µM for the first, > 100 µM for the second.

For `NC(=O)C1CCCNC1` (configuration not stated), the TGI was > 100 µM.

system: HL-60(TB) leukemia; experiment: DTP human tumour cell line panel, 48 h

Compared with `C#CC1(O)C(COP(=O)(O)OC(COCCCCCCCCCCCCCCCCCC)COP(=O)(O)OCC2OC(n3cc(C)c(=O)[nH]c3=O)CC2N=[N+]=[N-])OC(n2ccc(N)nc2=O)C1O` (configuration not stated), `CCOc1ccccc1/C=C(/C#N)C(N)=O` is higher in TGI: 16 µM for the first, > 100 µM for the second.

Going from `COc1cccc(-c2nnc3c(-c4ccccc4)nc4ccccc4n23)c1` to `c1ccc(COC2NCCN2Cc2ccccc2)cc1` (configuration not stated), the TGI rises from 34 µM to > 100 µM.

`NC(=O)C1CCCNC1` (configuration not stated) was tested, and the TGI was > 100 µM.

system: HOP-62 NSCLC; experiment: DTP human tumour cell line panel, 48 h

`C#CC1(O)C(COP(=O)(O)OC(COCCCCCCCCCCCCCCCCCC)COP(=O)(O)OCC2OC(n3cc(C)c(=O)[nH]c3=O)CC2N=[N+]=[N-])OC(n2ccc(N)nc2=O)C1O` (configuration not stated) and `CCOc1ccccc1/C=C(/C#N)C(N)=O` cannot be ordered by TGI: > 74.2 µM for the first, > 100 µM for the second.

`COc1cccc(-c2nnc3c(-c4ccccc4)nc4ccccc4n23)c1` and `c1ccc(COC2NCCN2Cc2ccccc2)cc1` (configuration not stated) cannot be ordered by TGI: > 100 µM for the first, > 100 µM for the second.

In the case of `NC(=O)C1CCCNC1` (configuration not stated), the TGI is reported as > 100 µM.

system: HOP-92 NSCLC; experiment: DTP human tumour cell line panel, 48 h

In the case of `C#CC1(O)C(COP(=O)(O)OC(COCCCCCCCCCCCCCCCCCC)COP(=O)(O)OCC2OC(n3cc(C)c(=O)[nH]c3=O)CC2N=[N+]=[N-])OC(n2ccc(N)nc2=O)C1O` (configuration not stated), the TGI is reported as 31.9 µM.
